Reference: article PMC9026285 (ACS Chemical Neuroscience, 2022)
Each block holds one compound with its values, some of them ahead of it.

Columns and labels:
hTauP301L mice = test: Chronic; type: in vivo, mouse; details: P301L mice
[1] = tested on: GFAP (astrogliosis), pS129 and human α-synuclein; test: GFAP immunoassay and histopathology in Line 61 mice; type: in vivo, mouse; details: hippocampus, 24 weeks
Half-life in mice = details: mouse, in vivo
[2] = tested on: protein O-GlcNAcylation in human PBMC; test: In vitro PBMC cell-based assay, human PBMC; details: 4 h, read-out: EC50, protein O-GlcNAcylation in human PBMC
recombinant human HexA = biological target: T1, recombinant human HexA (Homo sapiens, UniProt P06865); test: Hexosaminidase A assay; type: biochemical
T1 sequence (P06865 89-529): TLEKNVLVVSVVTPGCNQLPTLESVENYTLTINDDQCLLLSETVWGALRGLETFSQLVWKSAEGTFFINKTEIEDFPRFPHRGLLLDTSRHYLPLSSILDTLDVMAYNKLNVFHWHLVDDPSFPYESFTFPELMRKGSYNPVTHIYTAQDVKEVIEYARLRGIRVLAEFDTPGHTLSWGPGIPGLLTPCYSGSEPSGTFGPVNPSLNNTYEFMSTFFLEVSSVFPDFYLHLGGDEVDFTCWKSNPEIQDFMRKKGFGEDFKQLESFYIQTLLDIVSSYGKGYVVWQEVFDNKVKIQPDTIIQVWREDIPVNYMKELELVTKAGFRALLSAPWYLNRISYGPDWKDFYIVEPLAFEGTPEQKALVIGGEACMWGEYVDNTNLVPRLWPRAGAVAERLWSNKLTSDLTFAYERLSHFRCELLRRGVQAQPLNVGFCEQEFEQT

[3] = tested on: brain protein and α-synuclein O-GlcNAcylation; test: O-protein and O-GlcNAcylated α-synuclein; details: Line 61 mice; for increase in brain protein O-GlcNAcylation (mean): 24 weeks, t = 4 h post-dose
[4] = tested on: HexA/B from human placenta; test: Hexosaminidase A/B assay; type: biochemical
[5] = tested on: Line 61 α-synuclein transgenic mice; test: Beam walk test in Line 61 α-synuclein transgenic mice, chronic treatment; type: in vivo, mouse; details: Line 61 mice, 30 and 100 mg/kg/day oral, after 12 weeks, persisted to week 24
[6] = cited from earlier work
[7] = up to the highest concentration tested (30 μM)

Structure (SMILES): CC(=O)Nc1nnc(N2CCN([C@@H](C)c3ccc4c(c3)OCO4)CC2)s1 [ASN90, (S)-N-(5-(4-(1-(benzo[d][1,3]dioxol-5-yl)ethyl)piperazin-1-yl)-1,3,4-thiadiazol-2-yl)acetamide]
survival (hTauP301L mice; 30 and 100 mg/kg/day oral, 6 months): significantly increased survival | effect on pathogenic tau pS202/205 (AT8) (hTauP301L mice; brainstem and hippocampus, chronic treatment): no statistically significant treatment effects | object size for pS129 α-synuclein immunoreactivity [1]: significant decrease | total α-synuclein immunoreactivity [1]: unchanged | half-life (Half-life in mice): 2.8 h | EC50 [2]: 209 nM | inhibitory activity on HexA (recombinant human HexA; [7]): no inhibitory activity | increase in brain protein O-GlcNAcylation (mean) ([3]; 30 mg/kg/day): +78% | increase of O-GlcNAcylated α-synuclein as % of total ([3]; 100 mg/kg, chronic, vs vehicle): 1.7 fold | increase in brain protein O-GlcNAcylation (mean) ([3]; 100 mg/kg/day): +105% | inhibitory activity on HexA/B [4, 7]: no inhibitory activity | motor performance in three types of beam walk (slips) [5]: highly significant treatment benefit

Structure (SMILES): CCN=C1N[C@@H]2[C@@H](O)[C@H](O)[C@@H](CO)O[C@@H]2S1 [Thiamet G]
brain-to-plasma ratio [6]: 0.1

IC50 (recombinant human HexA): 490 nM | IC50 ([4]; read-out: IC50 HexA/B): 31 nM
Structure (SMILES): CC(=O)N[C@H]1/C(=N/OC(=O)Nc2ccccc2)O[C@H](CO)[C@@H](O)[C@@H]1O [PUGNAc, reference compound]
